# Experimental data published in patent US10428030B2, “Heterocycle derivatives and their use for the treatment of CNS disorders” (Trillium Therapeutics Inc., priority 2015, dated 2019).
# Legend:
# Assay type in all cases: in vivo
# Male Sprague-Dawley rats = test: Maximal Electroshock Seizure (MES) rat model; settings: po, 4 hours
# Experimental: Male, Sprague-Dawley rats and CD-1 mice were used for all studies. All animals were allowed ad-lib access to food and water except during experiment. Animals were housed within an animal vivarium maintained under a 12 h light:dark cycle (lights on: 07:00 h), and all experiments were conducted in the animals light phase. For all experiments, animals were habituated to the vivarium for a minimum of 72 h before experimentation. The experimental procedures used in the present investigation were conducted under the Association for Assessment and Accreditation of Laboratory Animal Care (AAALAC) and the Canadian Council on Animal Care (CCAC) guidelines.
# All compounds were sonicated in 5% Tween 80® in saline or methylcellulose 0.5% (wgt/vol), using MC and sterile water and injected in a dose volume of 5 ml/kg or 10 ml/kg (rat), and 10 ml/kg (mouse). Drugs were administered by either the oral, intraperitoneal or intravenous route.
# Male Sprague-Dawley rats of body weight 80-100 g were used for these studies. Each experiment was conducted over 3 consecutive days. On day 1 and 2, each rat received a single electrical stimulus (150 mA, 0.2 s duration, 60 Hz) via corneal electrodes moistened with saline (Shock stimulator type 221: Harvard apparatus). […] Typically this reflected approximately 70-90% of the initial group.
# On the test day following a defined drug pretreatment period, rats received a maximal electroshock (150 mA, 0.2 s duration, 60 Hz) via corneal electrodes. Protection was defined as absence of a full tonic seizure within 10 s of stimulus delivery. Twenty minutes before the MES procedure, the animals were tested on a fixed speed rotorod (best score from 3 trials at 8 r.p.m, trial duration=60 s) to give an early assessment of drug effect on gross motor function.
# corneal kindled mice = test: Corneal kindling mouse model (focal seizures)
# From the text: Mice are kindled electrically with 3 sec stimulation, 8 mA, 60 Hz, and coneal electrodes to a criterion of 10 consecutive Stage 5 seizures (facial clonus and head nodding progressing to forelimb clonus, and finally rearing and falling accompanied by a generalized clonic seizure as described by Racine (Racine R J. Neurophysiol., 1972. 32: p. 281-294) Stage 5 is generally reached after twice daily stimulation for 8 days. With continued stimulation once a day, animals usually progress to a reproducible Stage 5 after 10-14 additional days. At least 72 hours after the mice have been kindled, the test substance is administered either i.p. or p.o. and, at the previously determined TPE, each animal is given the electrical stimulus indicated above. Following stimulation, the animals are observed for the presence or absence of the rearing and falling criteria of a Stage 5 seizure. Treated animals not displaying a Stage 3, 4, or 5 seizure are considered protected. The dose of the test substance is varied between the limits of 0 and 100% efficacy, and the ED50 and 95% confidence intervals calculated by probit analysis. Mean values and the S.E.M. are calculated for the length of clonus and seizure duration and p values are determined by the Student's t-test.
# amygdala kindled rat = test: Amygdala kindled rat model (focal seizures); settings: <100 mg/kg i.p., vs vehicle controls
# From the text: Amygdala kindling model is an animal model for complex partial seizures, which is the most common type of epilepsy in adults and is often drug resistant. Exemplary compounds of the application were effective in this model.
smiles,measurement,setting,value
O=C1COc2cc(OCc3ccc(OC(F)F)cc3)ccc2N1 [Compound I(B)],ED50,Male Sprague-Dawley rats,20.1 ± 0.7 mg/kg
same,ED50,"corneal kindled mice; Mus musculus, corneal kindled mice, read-out: ED50, suppression of fully kindled (stage 5) seizures",119 ± 1.81 mg/kg
same,Average Seizure,corneal kindled mice; dose 35 mg/kg,5
same,N/F (number of animals active over the number tested),corneal kindled mice; dose 35 mg/kg,0/8
same,Average Seizure,corneal kindled mice; dose 70 mg/kg,4.6
same,N/F (number of animals active over the number tested),corneal kindled mice; dose 70 mg/kg,1/8
same,Average Seizure,corneal kindled mice; dose 140 mg/kg,2.4
same,N/F (number of animals active over the number tested),corneal kindled mice; dose 140 mg/kg,5/8
same,Average Seizure,corneal kindled mice; dose 300 mg/kg,0.8
same,N/F (number of animals active over the number tested),corneal kindled mice; dose 300 mg/kg,8/8
same,effect on fully kindled (stage 5) seizures,corneal kindled mice; vs vehicle controls,dose related suppression of fully kindled (stage 5) seizures
same,suppression of fully kindled (stage 5) seizures,amygdala kindled rat,dose related suppression of fully kindled (stage 5) seizures
